This passage reports Ki results from EP0907632B1, “INHIBITION OF MATRIX METALLOPROTEASES BY SUBSTITUTED PHENETHYL COMPOUNDS” (Bayer Corporation, priority 1996, dated 1997).

Experiment [1] addresses T1, MMP-3 (Homo sapiens, UniProt P08254).
T1 construct: made in house; host or cells: CHO cells
It counts as biochemical. To be noted: 6 µM P218 substrate, pH 6.5, 25 min at 37°C; calculated from IC50; read-out: MMP-3 Kf. An excerpt:
(§1) The P218 quenched fluorescence assay (Microfluorometric Profiling Assay) is a modification of that originally described by Knight, et al., FEBS Lett. 296, 263, 1992 for a related substance and a variety of matrix metalloproteinases (MMPs) in cuvettes. The assay was run with each invention compound and the three MMPs, Mmp-3, MMP-9 and MMP-2, analyzed in parallel, adapted as follows for a 96-well microtiter plate and a Hamilton AT® workstation. P218 Fluorogenic Substrate: P218 is a synthetic substrate containing a 4-acetyl-7-methoxycoumarin (MCA) group in the N-terminal position and a 3-[2, 4-dinitrophenyl]-L-2,3-diaminopropionyl (DPA) group internally. This is a modification of a peptide reported by Knight (1992) that was used as a substrate for matrix metalloproteinases. Once the P218 peptide is cleaved (putative clip site at the Ala-Leu bond), the fluorescence of the MCA group can be detected on a fluorometer with excitation at 328 nm and emission at 393 nm. P218 is currently being produced BACHEM exclusively for Bayer. P218 has the structure: H-MCA-Pro-Lys-Pro-Leu-Ala-Leu-DPA-Ala-Arg-NH2 (MW 1332.2)
Recombinant Human CHO Pro-MMP-3: Human CHO pro-stromelysin-257 (pro-MMP-3) was expressed and purified as described by Housley, et al., J. Biol. Chem. 268, 4481, 1993.
Activation of Pro-MMP-3 Pro-MMP-3 at 1.72 µM (100 µg/mL) in 5 mM Tris at pH 7.5, 5 mM CaCl2, 25 mM NaCl, and 0.005% Brij-35 (MMP-3 activation buffer) was activated by incubation with TPCK (N-tosyl-(L)-phenylalanine chloromethyl ketone) trypsin (1:100 w/w to pro-MMP-3) at 25 °C for 30 min. The reaction was stopped by addition of soybean trypsin inhibitor (SBTI: 5:1 w/w to trypsin concentration). This activation protocol results in the formation of 45 kDa active MMP-3, which still contains the C-terminal portion of the enzyme.
(§2) Hamiltion Microlab AT P!us: The MMP-Profiling Assay is performed robotically on a Hamilton MicroLab AT Plus®. The Hamilton is programmed to: (1) serially dilute up to 11 potential inhibitors automatically from a 2.5 mM stock in 100% DMSO; (2) distribute substrate followed by inhibitor into a 96 well Cytofluor plate; and (3) add a single enzyme to the plate with mixing to start the reaction. Subsequent plates for each additional enzyme are prepared automatically by beginning the program at the substrate addition point, remixing the diluted inhibitors and beginning the reaction by addition of enzyme. In this way, all MMP assays were done using the same inhibitor dilutions.
(§3) Millipore Cytofluor II. Following incubation, the plate was read on a Cytofluor II fluorometric place reader with excitation at 340 nm and emission at 395 nm with the gain set at 80.
(§4) Microfluorometric Reaction Buffer (MRB): Dilution of test compounds, enzymes, and P218 substrate for the microfluorometric assay were made in microfluorometric reaction buffer consisting of 50 mM 2-(N-morpholino)ethanesulfonic acid (MES) at pH 6.5 with 10 mM CaCl2, 150 mM NaCl, 0.005% Brij-35 and 1% DMSO.
(§5) MMP Microfluorometric Profiling Assay. The assay is done with a final substrate concentration of 6 µM P218 and approximately .5 to .8 nM MMP with variable drug concentrations. The Hamilton is programmed to serially dilute up to 11 compounds from a 2.5 mM stock (100% DMSO) to 10x the final compounds concentrations in the assay. Initially, the instrument delivers various amounts of microfluoromentric reaction buffer (MRB) to a 96 tube rack of 1 ml Marsh dilution tubes. The instrument then picks up 20 µl of inhibitor (2.5 mM) from the sample rack and mixes it with a buffer in row A of the Marsh rack, resulting in a 50 µM drug concentration. The inhibitors are then serially diluted to 10, 5, 1, .2, .05 and .01 µM. Position 1 on the sample rack contains only DMSO for the "enzyme-only" wells in the assay, which results in no inhibitor in column 1, rows A through H. The instrument then distributes 107 µl of P218 substrate (8.2 µM in MRB) to a single 96 well cytofluor microtiter plate. […]

Experiment [2] deals with T2, MMP-9 (Homo sapiens, UniProt P14780).
T2 construct: made in house
The format is biochemical. The note with it: 6 µM P218 substrate, pH 6.5, 25 min at 37°C; calculated from IC50; read-out: MMP-9 Kf.
From the text: as §1
Recombinant Human Pro-MMP-9: Human pro-gelatinase B (pro-MMP-9) derived from U937 cDNA as described by Wilhelm, et al. J. Biol. Chem. 264, 17213, 1989 was expressed as the full-length form using a baculovirus protein expression system. The pro-enzyme was purified using methods previously described by Hibbs, et al. J. Biol. Chem. 260, 2493, 1984.
Activation of Pro-MMP-9: […] 20 µg/mL in 50 mM Tris at pH 7.4, 10mM CaCl2, 150 mM NaCl, and 0.005% Brij-35 (MMP-9 activation buffer) was activated by incubation with 0.5 mM p-aminophenylmercuric acetate (APMA) for 3.5 h at 37 °C. The enzyme was dialyzed against the same buffer to remove the APMA.
as §2, §3, §4, §5

Experiment [3] has as its target T3, MMP-2 (Homo sapiens, UniProt P08253).
T3 sequence (P08253 110-660): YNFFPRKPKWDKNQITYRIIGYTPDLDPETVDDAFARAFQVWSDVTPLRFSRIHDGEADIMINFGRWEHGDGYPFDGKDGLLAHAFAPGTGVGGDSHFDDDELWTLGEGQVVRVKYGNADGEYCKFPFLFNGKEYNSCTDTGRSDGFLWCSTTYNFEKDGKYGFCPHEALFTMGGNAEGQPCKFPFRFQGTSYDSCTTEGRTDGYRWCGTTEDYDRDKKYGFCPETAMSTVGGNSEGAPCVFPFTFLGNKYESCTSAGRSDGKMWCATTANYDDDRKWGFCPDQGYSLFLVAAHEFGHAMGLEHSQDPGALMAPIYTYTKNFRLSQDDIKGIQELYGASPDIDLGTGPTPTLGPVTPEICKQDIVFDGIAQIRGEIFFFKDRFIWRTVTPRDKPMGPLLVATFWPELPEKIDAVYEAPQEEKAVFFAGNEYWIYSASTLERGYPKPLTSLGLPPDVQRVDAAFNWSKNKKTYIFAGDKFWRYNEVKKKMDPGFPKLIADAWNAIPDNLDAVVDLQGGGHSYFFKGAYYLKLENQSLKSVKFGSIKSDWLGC
In words: biochemical.

T1 sequence (P08254 100-477): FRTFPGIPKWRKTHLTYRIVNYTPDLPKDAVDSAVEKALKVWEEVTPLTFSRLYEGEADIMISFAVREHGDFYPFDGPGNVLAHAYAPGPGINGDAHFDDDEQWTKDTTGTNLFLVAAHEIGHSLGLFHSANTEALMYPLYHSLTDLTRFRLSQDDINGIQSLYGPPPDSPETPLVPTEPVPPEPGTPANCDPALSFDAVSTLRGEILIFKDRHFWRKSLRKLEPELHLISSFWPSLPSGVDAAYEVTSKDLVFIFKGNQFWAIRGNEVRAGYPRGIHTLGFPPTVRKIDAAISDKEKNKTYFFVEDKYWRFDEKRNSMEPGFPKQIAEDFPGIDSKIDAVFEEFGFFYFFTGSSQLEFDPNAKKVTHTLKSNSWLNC
T2 sequence (P14780 107-707 limits assumed): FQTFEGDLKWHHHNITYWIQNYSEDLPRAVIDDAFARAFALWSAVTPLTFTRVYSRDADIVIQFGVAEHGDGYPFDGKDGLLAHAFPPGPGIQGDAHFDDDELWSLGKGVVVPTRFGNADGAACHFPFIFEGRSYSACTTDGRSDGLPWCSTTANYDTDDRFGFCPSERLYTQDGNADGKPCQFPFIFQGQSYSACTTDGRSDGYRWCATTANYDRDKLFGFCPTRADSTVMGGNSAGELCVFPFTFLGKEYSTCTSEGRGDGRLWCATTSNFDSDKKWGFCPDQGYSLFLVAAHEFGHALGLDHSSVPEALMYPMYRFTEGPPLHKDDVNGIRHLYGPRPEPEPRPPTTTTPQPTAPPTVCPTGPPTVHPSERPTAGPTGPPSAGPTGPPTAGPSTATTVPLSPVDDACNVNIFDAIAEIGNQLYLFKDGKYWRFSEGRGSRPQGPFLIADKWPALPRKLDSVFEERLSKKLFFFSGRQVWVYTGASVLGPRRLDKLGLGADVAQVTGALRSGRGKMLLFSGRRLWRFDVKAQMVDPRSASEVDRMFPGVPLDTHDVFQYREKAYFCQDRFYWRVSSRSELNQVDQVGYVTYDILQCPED

With `CC(C)CCNC(=O)c1ccc(CCC(CC(=O)c2ccc(-c3ccc(Cl)cc3)cc2)C(=O)O)cc1` (stereo not drawn) [XVIII, 4'-chloro-α-[2-[4-[[(3-methylbutyl)amino]carbonyl]phenyl]ethyl]-γ-oxo-[1,1'-biphenyl]-4-butanoic acid], the Ki in experiment [1] was 677 nM; in experiment [2], 452 nM; in experiment [3] it was 137 nM.

Turning to `O=C(CC(CCc1cccc(C(=O)N2CCOCC2)c1)C(=O)O)c1ccc(-c2ccc(Cl)cc2)cc1` (stereo not drawn) [Compound X, 4'-chloro-α-[2-[3-(4-morpholinylcarbonyl)phenyl]ethyl]-γ-oxo-[1,1'-biphenyl]-4-butanoic acid], the Ki was 73.8 nM in experiment [1], 251 nM in experiment [2] and 26.1 nM in experiment [3].

Consider `O=C(CC(CCc1cccc(C(=O)NCCCc2ccccc2)c1)C(=O)O)c1ccc(-c2ccc(Cl)cc2)cc1` (stereo not drawn) [XIII, 4'-chloro-γ-oxo-α-[2-[3[[(3-phenylpropyl)amino]carbonyl]phenyl]ethyl]-[1,1'-biphenyl]-4-butanoic acid], for which the Ki in experiment [1] is 236 nM; in experiment [2] it was 552 nM; in experiment [3] it was 157 nM.

As for `O=C(CC(CCc1ccccc1C(=O)NCCc1ccccc1)C(=O)O)c1ccc(-c2ccc(Cl)cc2)cc1` (stereo not drawn) [Compound I, 4'-chloro-γ-oxo-α-[2-[2-[[(2-phenylethyl)amino]carbonyl]phenyl]ethyl]-[1,1'-biphenyl]-4-butanoic acid], the Ki in experiment [1] is 127 nM; in experiment [2], 173 nM; in experiment [3] it was 41.1 nM.

In the case of `CCOC(=O)CNC(=O)c1ccc(CCC(CC(=O)c2ccc(-c3ccc(Cl)cc3)cc2)C(=O)O)cc1` (stereo not drawn) [XIX, 4'-chloro-α-[2-[4-[[(2-ethoxy-2-oxoethyl)amino]carbonyl]phenyl]ethyl]-γ-oxo[1,1'-biphenyl]4-butanoic acid], the values for the Ki in experiment [1], in experiment [2] and in experiment [3] were 376 nM, 423 nM and 82.3 nM, respectively.

Take `O=C(CC(CCc1ccc(C(=O)N2CCCCC2)cc1)C(=O)O)c1ccc(-c2ccc(Cl)cc2)cc1` (stereo not drawn) [Compound XXI, 4'-chloro-γ-oxo-α-[2-[4-(1-piperidinylcarbonyl)phenyl]ethyl]-[1,1'-Biphenyl]-4-butanoic acid]: the Ki is 242 nM in experiment [1], 806 nM in experiment [2] and 84.1 nM in experiment [3].

`O=C(O)CNC(=O)c1ccc(CCC(CC(=O)c2ccc(-c3ccc(Cl)cc3)cc2)C(=O)O)cc1` (stereo not drawn) [Compound XXIV, α-[2-[4[[(carboxymethyl)amino]carbonyl]phenyl]ethyl]-4'-chloro-γ-oxo-[1,1'-biphenyl]-4-butanoic acid]: the Ki is 293 nM in experiment [1], 915 nM in experiment [2] and 82.4 nM in experiment [3].

For `O=C(CC(CCc1ccccc1C(=O)NCCCc1ccccc1)C(=O)O)c1ccc(-c2ccc(Cl)cc2)cc1` (stereo not drawn) [IV, 4'-chloro-γ-oxo-α-[2-[2-[[(3-phenylpropyl)amino]carbonyl]phenyl]ethyl]-[1,1'-biphenyl]-4-butanoic acid], the Ki in experiment [1] is 175 nM; in experiment [2], 246 nM; in experiment [3], 68.7 nM.

On to `CCCCCOc1ccc(-c2ccc(C(=O)CC(CCc3cccc(C(=O)N4CCCCC4)c3)C(=O)O)cc2)cc1` (stereo not drawn) [Compound XXXI, γ-oxo-4'-(pentyloxy)-α-[2-[3-(1-piperidinylcarbonyl)phenyl]ethyl]-[1,1'-biphenyl]-4-butanoic acid], for which the Ki is 35.8 nM in experiment [1], 373 nM in experiment [2] and 17 nM in experiment [3].

As to `O=C(CC(CCc1cccc(C(=O)NCCc2ccccc2)c1)C(=O)O)c1ccc(-c2ccc(Cl)cc2)cc1` (stereo not drawn) [XII, 4'-chloro-γ-oxo-α-[2-[3-[[(2-phenylethyl)amino]carbonyl]phenyl]ethyl]-[1,1'-biphenyl]-4-butanoic acid], the Ki in experiment [1] is 450 nM; in experiment [2], 2650 nM; in experiment [3], 125 nM.

`CC(C)CCNC(=O)c1ccccc1CCC(CC(=O)c1ccc(-c2ccc(Cl)cc2)cc1)C(=O)O` (stereo not drawn) [VI, 4'-chloro-α-[2-[2-[[(3-methylbutyl)amino]carbonyl]phenyl]ethyl]-γ-oxo-[1,1'-biphenyl]-4-butanoic acid]: the Ki in experiment [1] is 214 nM; in experiment [2] it was 431 nM; in experiment [3] it was 58.1 nM.

Take `CCOC(=O)CN(C)C(=O)c1ccccc1CCC(CC(=O)c1ccc(-c2ccc(Cl)cc2)cc1)C(=O)O` (stereo not drawn) [IX, 4'-chloro-α-[2-[2-[[(2-ethoxy-2-oxoethyl)methylamino]carbonyl]phenyl]ethyl]-γ-oxo-[1,1'-biphenyl]-4-butanoic acid]: the Ki in experiment [1] is 43.6 nM; in experiment [2], 254 nM; in experiment [3], 17.5 nM.

In the case of `O=C(CC(CCc1cccc(C(=O)N2CCCCC2)c1)C(=O)O)c1ccc(-c2ccc(OCc3ccccc3)cc2)cc1` (centres unmarked) [Compound XXX], the values for the Ki in experiment [1], in experiment [2] and in experiment [3] were 12.5 nM, 102 nM and 4.44 nM, respectively.

`CCOC(=O)CNC(=O)c1ccccc1CCC(CC(=O)c1ccc(-c2ccc(Cl)cc2)cc1)C(=O)O` (stereo not drawn) [VIII, 4'-chloro-α-[2-[2-[[(2-ethoxy-2-oxo-ethyl)amino]carbonyl]phenyl]ethyl]-γ-oxo-[1,1'-biphenyl]-4-butanoic acid]: the Ki in experiment [1] was 165 nM; in experiment [2] it was 806 nM; in experiment [3], 56.8 nM.

Regarding `O=C(CC(CCc1ccc(C(=O)NCCc2ccccc2)cc1)C(=O)O)c1ccc(-c2ccc(Cl)cc2)cc1` (stereo not drawn) [Compound XX, 4'-chloro-γ-oxo-α-[2-[4-[[(2-phenylethyl)amino]carbonyl]phenyl]ethyl]-[1,1'-biphenyl]-4-butanoic acid], the Ki was 2000 nM in experiment [2] and 446 nM in experiment [3].
